# Results: PMC4389225, “Triaminopyrimidine is a fast-killing and long-acting antimalarial clinical candidate” (Nature Communications, 2015)
# Key:
# [1] = system: Dd2-CYTbQi; assay: SYBR green growth assay, Dd2-CYTbQi mutant; format: cell-based, P. falciparum; settings: Plasmodium falciparum, DD2
# Experimental: (§1) To eliminate overlapping mode of action with known targets, cross-resistance testing of representative TAPs against drug-resistant lines with well-characterized mutations in Pf dihydroorotate dehydrogenase, Pf heat-shock protein 90, Pf chloroquine resistance transporter[25] or Pf cytochrome b reduction site[26] was performed. […] Assays were carried out in 384-well format with three technical replicates within an assay day and biological replicates carried out on three different assay days to assign a final EC50.
# (§2) A representative TAP (compound 6) was tested for its activity against a panel of P. falciparum strains known to harbour mutations conferring resistance to antimalarial agents under development. Artesunate and amodiaquine were included as additional control […]
# (§3) Values are the means ± standard deviation derived from three independent assays performed
# [2] = system: Dd2-PfCRT; assay: SYBR green growth assay, Dd2-PfCRT mutant; format: cell-based, P. falciparum; settings: Plasmodium falciparum, DD2
# Experimental: as §1, §2, §3
# [3] = system: Dd2-DHODH; assay: SYBR green growth assay, Dd2-DHODH mutant; format: cell-based, P. falciparum; settings: Plasmodium falciparum, DD2
# Experimental: as §1, §2, §3
# [4] = system: Dd2; assay: SYBR green growth assay, Dd2 (parental); format: cell-based, P. falciparum; settings: Plasmodium falciparum, mean ± SD
# Experimental: as §1, §2, §3
# [5] = system: Dd2-HSP90; assay: microbe, parasite or virus in culture; format: cell-based, P. falciparum; settings: Plasmodium falciparum, DD2
# Experimental: as §1, §2, §3
# [6] = system: Pf NF54; assay: microbe, parasite or virus in culture; format: cell-based; settings: Plasmodium falciparum
# From the text: (§4) tested in duplicate from two independent experiments using a SYBR-Green based assay2.
# (§5) (1 picture or pasted object on this page, not shown here)
# [7] = system: Pf 7G8; assay: microbe, parasite or virus in culture; format: cell-based; settings: Plasmodium falciparum
# From the text: as §4, §5
# [8] = system: Pf K1; assay: microbe, parasite or virus in culture; format: cell-based; settings: Plasmodium falciparum
# From the text: as §4, §5
# [9] = system: Pf W2; assay: microbe, parasite or virus in culture; format: cell-based; settings: Plasmodium falciparum
# From the text: as §4, §5
# [10] = system: Pf DD2; assay: microbe, parasite or virus in culture; format: cell-based; settings: Plasmodium falciparum
# From the text: as §4, §5
# [11] = system: Pf SB1; assay: microbe, parasite or virus in culture; format: cell-based; settings: Plasmodium falciparum
# From the text: as §4, §5
# [12] = system: Dd2-6R F2 B5; assay: SYBR green growth assay, Dd2-6R F2 B5; settings: Plasmodium falciparum, DD2
# From the text: (§7) The drug was then washed off and the parasites were allowed to recover in normal growth media.
# [13] = system: Dd2-6R F4 D4; assay: SYBR green growth assay, Dd2-6R F4 D4; settings: Plasmodium falciparum
# From the text: as §7
# [14] = system: Dd2-6R F4 G7; assay: SYBR green growth assay, Dd2-6R F4 G7; settings: Plasmodium falciparum
# From the text: as §7
# [15] = system: Dd2-6R F2 D8; assay: SYBR green growth assay, Dd2-6R F2 D8; settings: Plasmodium falciparum
# From the text: as §7
# [16] = system: Dd2-6R F2 C5; assay: SYBR green growth assay, Dd2-6R F2 C5; settings: Plasmodium falciparum
# From the text: as §7
# [17] = system: Dd2 DHODH DSM265; assay: [3H]-hypoxanthine incorporation assay, Dd2 DHODH DSM265 resistant; format: cell-based; settings: Plasmodium falciparum
# Experimental: (§6) Supplementary Table 3: Compound 9 and 12 retain their activity against Pf strains harbouring mutations to novel antimalarial agents in clinical development. Compound 9 and 12 were tested for their antiplasmodial activity against a panel of Pf strains known to harbour mutations conferring resistance to novel agents under clinical development. Parasite growth inhibition is measured using the [3H]-hypoxanthine incorporation assay. IC50s are established for each strain (n ≥2) and compared to the IC50 of Dd2 (standard pan-resistant […]
# [18] = system: Dd2 bc-1 ELQ-300; assay: [3H]-hypoxanthine incorporation assay, Dd2 bc-1 ELQ-300 resistant; format: cell-based, Plasmodium falciparum; settings: Dd2 bc-1 ELQ-300; read-out: IC50
# Experimental: as §6
# [19] = system: Dd2; assay: [3H]-hypoxanthine incorporation assay, Dd2; format: cell-based, Plasmodium falciparum; settings: Dd2, [3H]-hypoxanthine; read-out: IC50
# Experimental: 9 and 12 were tested for their antiplasmodial activity against a panel of Pf strains known to harbour mutations conferring resistance to novel agents under clinical development. Parasite growth inhibition is measured using the [3H]-hypoxanthine incorporation assay. IC50s are established for each strain (n ≥2) and compared to the IC50 of Dd2 (standard pan-resistant
# [20] = DD2, Dd2, Supplementary Table 2
smiles,measurement,setting,value
CCN(CC)Cc1cc(Nc2ccnc3cc(Cl)ccc23)ccc1O [Amodiaquine],IC50,[1],9.9 ± 3 nM
same,IC50,[2],8.86 ± 1 nM
same,IC50,[3],10.7 ± 2 nM
same,IC50,[4]; [20],9.83 ± 0.4 nM
same,IC50,[5],8.96 ± 0.8 nM
C[C@@H]1CC[C@H]2[C@@H](C)C(=O)O[C@@H]3O[C@@]4(C)CC[C@@H]1[C@]32OO4 [Artemisinin],IC50,[6],7 ± 4 nM
same,IC50,[7],1.3 ± 0.1 nM
same,IC50,[8],6.5 ± 2 nM
same,IC50,[9],6.5 ± 1 nM
same,IC50,[10],10.3 ± 2 nM
same,IC50,[11],16.6 ± 5 nM
C[C@H]1[C@H](OC(=O)CCC(=O)O)O[C@@H]2O[C@@]3(C)CC[C@H]4[C@H](C)CC[C@@H]1[C@@]24OO3 [Artesunate],IC50,[12],1.6 ± 0.2 nM
same,IC50,[1],1.26 ± 0.4 nM
same,IC50,[2],1.84 ± 0.3 nM
same,IC50,[13],1.6 ± 0.9 nM
same,IC50,[14],1.6 nM
same,IC50,[15],1.4 ± 0.1 nM
same,IC50,[3],1.81 ± 0.3 nM
same,IC50,[16],1.2 ± 0.1 nM
same,IC50,[4]; [20],1.51 ± 0.2 nM
same,IC50,"[4]; DD2, Dd2 parental, Supplementary Table 13",2.6 ± 1.3 nM
same,IC50,[5],1.29 ± 0.2 nM
O=C1C(O)=C([C@H]2CC[C@H](c3ccc(Cl)cc3)CC2)C(=O)c2ccccc21 [Atovaquone],IC50,[7],2.3 ± 0.7 nM
same,IC50,[8],2.3 ± 0.8 nM
same,IC50,[10],2 ± 0.02 nM
same,IC50,[11],> 2000 nM
CCN(CC)CCCC(C)Nc1ccnc2cc(Cl)ccc12 (stereo not drawn) [Chloroquine],IC50,[11],11.8 ± 4.5 nM
"Cc1cc(Nc2ccc(S(F)(F)(F)(F)F)cc2)n2nc(C(C)(F)F)nc2n1 [DSM265, reference compound]",IC50,[17],48 nM
"COc1cc2[nH]c(C)c(-c3ccc(Oc4ccc(OC(F)(F)F)cc4)cc3)c(=O)c2cc1Cl [ELQ-300, reference compound]",IC50,[18],125 nM
same,IC50,[19],20 nM
